Reference: patent US20070128217A1 (priority 2003, published 2007)

Assays:
[1] = test system: antibodies in sera from SARS patients (sera 1a, 1b, 2, 6, 37, 62, London, SARS-yellow, SARS-green); format: binding, human; design: Binding of serum 6 to linear peptides of protein X1 of SARS-CoV Urbani / Binding of serum 37 to linear peptides of protein X1 of SARS-CoV Urbani / Binding of serum 6 to looped/cyclic peptide (PEPSCAN-ELISA) / Binding of serum 37 to looped/cyclic peptide (PEPSCAN-ELISA) / Binding of serum 37 to looped/cyclic peptides of protein X1 of SARS-CoV Urbani / Binding of serum 6 to linear peptides of protein X2 / Binding of serum 37 to linear peptides of protein X2 / Binding of serum 37 to looped/cyclic peptides of protein X2 of SARS-CoV Urbani / Binding of serum 6 to linear peptides of protein M of SARS-CoV Urbani / Binding of serum 37 to linear peptides of protein M of SARS-CoV Urbani / Binding of serum 6 to looped/cyclic peptides of protein M of SARS-CoV Urbani / Binding of serum 37 to looped/cyclic peptides of protein M of SARS-CoV Urbani / Binding of serum 6 to linear peptides of protein X3 of SARS-CoV Urbani / Binding of serum 37 to linear peptides of protein X3 of SARS-CoV Urbani / Binding of serum 37 to looped/cyclic peptides of protein X3 of SARS-CoV Urbani / Binding of serum 6 to linear peptides of protein X4 of SARS-CoV Urbani / Binding of serum 37 to linear peptides of protein X4 of SARS-CoV Urbani / Binding of serum 37 to looped/cyclic peptides of protein X4 of SARS-CoV Urbani / Binding of serum 6 to linear peptides of protein X5 of SARS-CoV Urbani / Binding of serum 37 to linear peptides of protein X5 of SARS-CoV Urbani / Binding of serum 37 to looped/cyclic peptides of protein X5 of SARS-CoV Urbani / Binding of serum 6 to linear peptides of protein N of SARS-CoV Urbani / Binding of serum 37 to linear peptides of protein N of SARS-CoV Urbani / Binding of serum 6 to linear peptide (PEPSCAN-ELISA) / Binding of serum 1a to looped/cyclic peptides of protein N of SARS-CoV Urbani / Binding of serum 1b to looped/cyclic peptides of protein N of SARS-CoV Urbani / Binding of serum 2 to looped/cyclic peptides of protein N of SARS-CoV Urbani / Binding of serum 6 to looped/cyclic peptides of protein N of SARS-CoV Urbani / Binding of serum 37 to looped/cyclic peptides of protein N of SARS-CoV Urbani / Binding of serum 62 to looped/cyclic peptides of protein N of SARS-CoV Urbani / Binding of serum London to looped/cyclic peptides of protein N of SARS-CoV Urbani / Binding of serum SARS-green to looped/cyclic peptides of protein N of SARS-CoV Urbani: unit not given here
[2] = test system: control sera (pooled serum of ten healthy LUMC hospital workers; commercial negative donor pooled serum from the Dutch bloodbank); format: binding, human; design: Binding of Control serum LUMC to linear peptides / Binding of Control serum Blood-bank to linear peptides / Binding of Control serum LUMC to looped peptides / Binding of Control Serum Blood-Bank to Looped peptides / Binding of Control serum LUMC to linear peptides of the protein M of SARS-CoV Urbani / Binding of Control serum Blood-bank to linear peptides of the protein M of SARS-CoV Urbani / Binding of Control serum LUMC to looped peptides of the protein M of SARS-CoV Urbani / Binding of Control Serum Blood-Bank to Looped peptides of the protein M of SARS-CoV Urbani: unit not given here
[3] = test system: rabbit serum obtained by immunizing a rabbit with the SARS-CoV strain Frankfurt 1; format: binding; design: Binding of a rabbit serum to linear peptides / Binding of a rabbit serum to looped peptides / Rabbit serum linear peptides / Rabbit serum looped peptides / Binding of a rabbit serum to linear peptides of protein N of SARS-CoV Urbani (Rabbit serum linear peptides) / Binding of a rabbit serum to looped/cyclic peptides of protein N of SARS-CoV Urbani (Rabbit serum looped peptides): unit not given here

Sequence	Binding of serum 1a to linear peptides of protein M of SARS-CoV Urbani [1]	Binding of serum 1b to linear peptides of protein M of SARS-CoV Urbani [1]	Binding of serum 2 to linear peptides of protein M of SARS-CoV Urbani [1]	Binding of serum 6 to linear peptides of protein M of SARS-CoV Urbani [1]	Binding of serum 37 to linear peptides of protein M of SARS-CoV Urbani [1]	Binding of serum 62 to linear peptides of protein M of SARS-CoV Urbani [1]	Binding of serum London to linear peptides of protein M of SARS-CoV Urbani [1]	Binding of serum SARS-green to linear peptides of protein M of SARS-CoV Urbani [1]	Binding of serum SARS-yellow to linear peptides of protein M of SARS-CoV Urbani [1]	Binding of Control Serum Blood-Bank to Looped peptides of the protein M of SARS-CoV Urbani [2]	Binding of Control serum Blood-bank to linear peptides of the protein M of SARS-CoV Urbani [2]	Binding of Control serum LUMC to linear peptides of the protein M of SARS-CoV Urbani [2]	Binding of Control serum LUMC to looped peptides of the protein M of SARS-CoV Urbani [2]	Rabbit serum linear peptides [3]	Rabbit serum looped peptides [3]	also measured
NRFLYIIKLVFLWLL	0.7	0.5	0.5	0.3	0.7	0.7	0.3	0.3	0.1	0.7	0.7	0.3	0.6	0.4	0.3	Recognition of the peptide by sera of SARS-CoV infected individuals, and form (linear, looped/cyclic) in which it is recognized [1]: recognized in looped/cyclic form
AAVYRINWVTGGIAI	0.9	0.7	0.7	0.5	0.6	0.5	0.4	0.6	0.3	0.8	0.8	1.0	0.5	0.4	0.4	Binding of serum 1a to looped/cyclic peptides of protein M of SARS-CoV Urbani [1]: 0.6; Binding of serum 1b to looped/cyclic peptides of protein M of SARS-CoV Urbani [1]: 0.4; Binding of serum 2 to looped/cyclic peptides of protein M of SARS-CoV Urbani [1]: 0.6; Binding of serum 6 to looped/cyclic peptides of protein M of SARS-CoV Urbani [1]: 0.5; Binding of serum 37 to looped/cyclic peptides of protein M of SARS-CoV Urbani [1]: 0.7; Binding of serum 62 to looped/cyclic peptides of protein M of SARS-CoV Urbani [1]: 0.4; Binding of serum London to looped/cyclic peptides of protein M of SARS-CoV Urbani [1]: 0.2; Binding of serum SARS-green to looped/cyclic peptides of protein M of SARS-CoV Urbani [1]: 0.0; Binding of serum SARS-yellow to looped/cyclic peptides of protein M of SARS-CoV Urbani [1]: 0.7
